The values below come from patent US10780101B2, “Amide derivatives of squalamine for the treatment of infections” (VIRBAC, priority 2016, dated 2020).

For assay [1], the system named is S. aureus Human ATCC 25923. Put plainly: MIC determination, S. aureus human ATCC 25923. The class given is cell-based. Conditions: Staphylococcus aureus, ATCC25923; Gram-positive; Mueller-Hinton medium, 24 h at 37° C. The protocol: (§1) A negative control (2 mL of sterile culture medium)
(§2) A positive control (1940 μL of culture medium+40 μL of DMSO+20 μL of the bacterial suspension) from a thawed biological strain (the biological strains are stored at −80° C. in glycerol).
(§3) The tubes were incubated at 37° C. for 24 hours at 100 rpm.
(§4) The microorganisms were handled under a type L2 laboratory fume cupboard and, before any handling, a UV cycle was programmed and only sterile material was used. […] The chemical compounds to be tested were prepared in a DMSO/methanol mixture (50/50) at a concentration of 5 mg/mL.
(§5) After 24 hours of incubation, a measurement of the optical density was taken using a spectrophotometer at 600 nm, collecting 100 μL of the bacterial suspension diluted in 900 μL of the sterile culture medium. This test required the use of a 96-well plate and the required volume of the microbial suspension to be seeded was calculated for an OD corresponding to a value equal to 0.01 in each well. In this plate, the first line corresponded to the negative control (195 μL of sterile culture medium in each well), the second line corresponded to the positive control (seeded culture medium supplemented with 2% of DMSO), and the third line was loaded twice with bacterial suspension; 8 μL of test product were placed in each well. Thereafter, a 0.5 cascade dilution was performed from this line.
(§6) The first column served as inhibition control. A sterile filter was then placed on the microplate, allowing the passage of gases but not of contaminants. The microplate was incubated at 37° C. under a humid atmosphere for 24 hours.
(§7) NB: The medium used is Mueller-Hinton (MH) medium for bacteria. All the tests were performed in duplicate.
(§8) After incubation, the filter was replaced with a transparent film, and an OD reading was then taken in an iEMS plate spectrophotometer at 620 nm. Calculation of the minimum inhibitory concentration (MIC) was performed.

The subject of another assay is S. aureus Animal (340). As to the kind of experiment: MIC determination, S. aureus animal (340). The assay is classed as cell-based. Conditions: Staphylococcus aureus; Gram-positive; Mueller-Hinton medium, 24 h at 37° C. The protocol:
as §1, §2, §3, §4, §5, §6, §7, §8

The test system of assay [2] is S. intermedius Animal (1051997). As to the kind of experiment: MIC determination, S. intermedius animal (1051997). The assay is classed as cell-based. Conditions: Staphylococcus intermedius; Gram-positive; Mueller-Hinton medium, 24 h at 37° C. As to the method:
as §1, §2, §3, §4, §5, §6, §7, §8

Assay [3] has as its system E. faecalis Human ATCC 29212. As to the kind of experiment: MIC determination, E. faecalis human ATCC 29212. The assay is classed as cell-based. The conditions noted are these: Enterococcus faecalis, ATCC29212; Gram-positive; Mueller-Hinton medium, 24 h at 37° C. As to the method: as §1, §2, §3, §4, §5, §6, §7, §8
The next assay deals with E. coli Human ATCC 28922. As to the kind of experiment: MIC determination, E. coli human ATCC 28922. Conditions: Escherichia coli, ATCC28922; Gram-negative; Mueller-Hinton medium, 24 h at 37° C. The assay is classed as cell-based. As to the method:
as §1, §2, §3, §4, §5, §6, §7, §8

A further assay relates to E. coli Animal (1956). Put plainly: MIC determination, E. coli animal (1956). The assay is classed as cell-based. The conditions noted are these: Escherichia coli; Gram-negative; Mueller-Hinton medium, 24 h at 37° C. The protocol: as §1, §2, §3, §4, §5, §6, §7, §8
In assay [4] the test system is P. aeruginosa Human ATCC 27853. As to the kind of experiment: MIC determination, P. aeruginosa human ATCC 27853. The class given is cell-based. Conditions: Pseudomonas aeruginosa, ATCC27853; Gram-negative; Mueller-Hinton medium, 24 h at 37° C. As to the method:
as §1, §2, §3, §4, §5, §6, §7, §8

For assay [5], the system named is P. aeruginosa Animal (1051575). As to the kind of experiment: MIC determination, P. aeruginosa animal (1051575). The assay is classed as cell-based. Conditions: Pseudomonas aeruginosa; Gram-negative; Mueller-Hinton medium, 24 h at 37° C. As to the method:
as §1, §2, §3, §4, §5, §6, §7, §8

For a further assay, the system named is CHO-K1 cells. As to the kind of experiment: WST1 cytotoxicity test on CHO-K1 cells. The class given is cell-based, Chinese hamster. Conditions: Cricetulus griseus, CHO-K1, 24 h, read-out: IC50 (μg/mL) CHO. The protocol: Test WST1 was used to measure the cytotoxic activity of the products. This is a colorimetric test which makes it possible to measure the viability and the degree of cell proliferation. It is based on cleavage of the colorless tetrazolium salts WST-1 (4-[3-(4-iodophenyl)-2-(4-nitrophenyl)-2H-5-tetrazolio]-1,3-benzene disulfonate) with mitochondrial dehydrogenases to the yellow-colored formazan derivative, which may be quantified by spectrophotometry at 420-480 nm.
The WST1 test was performed on Chinese hamster ovary cells. The CHO-K1 cells (ATCC, USA) are kept in culture in McCoy's 5A medium supplemented with 10% fetal calf serum, 2 mM of L-glutamine and a mixture of penicillin-streptomycin (100 U/ml: 10 μg/ml). The culture is incubated at 37° C. under an atmosphere enriched in CO2 (5%), and subcultured every two days.
The cells are transferred into 96-well plates (25000 cells/mL) in whole McCoy's 5A medium, and maintained for 24 hours at 37° C. under a humid atmosphere enriched in CO2 (5%). Increasing concentrations of test products are added to the wells in double tests and 8 growth controls containing the cells in the medium alone are included in each series of tests. After 24 hours at 37° C. (5% CO2), the culture medium is removed, the cells are rinsed in phosphate buffer (PBS) and 50 μL of PBS containing 10% of reagent WST1 are added to each well. After 20 minutes of incubation at 37° C., the results are read by spectrophotometry at 450 nm.
The results are expressed in dose-response relationships, modeled by nonlinear regression analysis using the TableCurve software. The 50% inhibitory concentration (IC50) represents the concentration of product that is capable of reducing the cell viability by 50%.

The test system of a further assay is P. aeruginosa (1051575). As to the kind of experiment: Potentiation of doxycycline activity (combination MIC). The assay is classed as cell-based, Pseudomonas aeruginosa. The conditions noted are these: for MIC - P. aeruginosa (1051575): content of compound of formula (I) to restore the doxycycline activity (at 2 μg/mL): in presence of doxycycline 2 μg/mL, 24 hours at 37° C.

Converted amounts (≈) assume the structure as drawn. Where only a bound is given, the exact number is not on record here.

On to `CC(C)NC(=O)CC[C@@H](C)[C@H]1CCC2C3C(CC[C@@]21C)[C@@]1(C)CC[C@H](NCCCN(CCCN)CCCN)CC1C[C@@H]3O` (stereo partly drawn) [(48), 3β-(tris(3-aminopropyl)amine)-N-isopropylursodeoxycholamide], for which the MIC is 30 µg/mL (≈ 49.7 µM) in assay [1]; 15 µg/mL (≈ 24.8 µM) against S. aureus Animal (340); 8 µg/mL (≈ 13.2 µM) in [2]; 60 µg/mL (≈ 99.3 µM) in assay [3]; over 120 µg/mL against E. coli Human ATCC 28922; 120 µg/mL (≈ 199 µM) against E. coli Animal (1956). Moreover, the MIC in [4] and in assay [5] was 120 µg/mL (≈ 199 µM) throughout. The IC50 with CHO-K1 cells turned out to be 42 µg/mL (≈ 69.5 µM). Further, the “MIC - P. aeruginosa (1051575): content of compound of formula (I) to restore the doxycycline activity (at 2 μg/mL)” value (shortened to “MIC - P. aeruginosa (1051575): content”) in the assay on P. aeruginosa (1051575) was found to be 4 µg/mL.
Turning to `CCN(CC)C(=O)CC[C@@H](C)[C@H]1CCC2C3C(CC[C@@]21C)[C@@]1(C)CC[C@H](NCCCNCCNCCCN)CC1C[C@H]3O` (stereo partly drawn) [(53), 3β-(bis(3-aminopropyl)ethylenediamine)-N,N-diethylchenodeoxycholamide], the MIC is 4 µg/mL (≈ 6.62 µM) in [1]; 4 µg/mL (≈ 6.62 µM) in the assay with S. aureus Animal (340); 2 µg/mL (≈ 3.31 µM) in assay [2]; 2 µg/mL (≈ 3.31 µM) in [3]; 60 µg/mL (≈ 99.3 µM) with E. coli Human ATCC 28922; 15 µg/mL (≈ 24.8 µM) against E. coli Animal (1956). In addition, the MIC is 30 µg/mL (≈ 49.7 µM) in assay [4] and 15 µg/mL (≈ 24.8 µM) in assay [5]. The IC50 in the assay with CHO-K1 cells came out at 30 µg/mL (≈ 49.7 µM). For the same compound, in the assay on P. aeruginosa (1051575), the “MIC - P. aeruginosa (1051575): content” value is 2 µg/mL.
As to `CC(C)N(C(=O)CC[C@@H](C)[C@H]1CCC2C3C(CC[C@@]21C)[C@@]1(C)CC[C@H](NCCCNCCNCCCN)CC1C[C@H]3O)C(C)C` (stereo partly drawn) [(54), 3β-(bis(3-aminopropyl)ethylenediamine)-N,N-diisopropylchenodeoxycholamide], the minimal inhibitory concentration (MIC) in assay [1] amounted to 4 µg/mL (≈ 6.33 µM); against S. aureus Animal (340), 4 µg/mL (≈ 6.33 µM); in assay [2], 2 µg/mL (≈ 3.16 µM); in assay [3], 2 µg/mL (≈ 3.16 µM); against E. coli Human ATCC 28922, 125 µg/mL (≈ 198 µM); against E. coli Animal (1956), 8 µg/mL (≈ 12.7 µM). Further, the minimal inhibitory concentration (MIC) in assay [4] is 32 µg/mL (≈ 50.6 µM); in [5], 16 µg/mL (≈ 25.3 µM). The IC50 with CHO-K1 cells was found to be 22 µg/mL (≈ 34.8 µM). In the assay on P. aeruginosa (1051575), the “MIC - P. aeruginosa (1051575): content” value worked out at 2 µg/mL.
Regarding `CC(C)NC(=O)CC[C@@H](C)[C@H]1CCC2C3C(C[C@H](O)[C@@]21C)[C@@]1(C)CC[C@H](NCCCNCCCCNCCCN)CC1C[C@H]3O` (stereo partly drawn) [Compound (31), 3β-spermino-N-isopropylcholamide], the minimum inhibitory concentration (MIC) in [1] was determined as 4 µg/mL (≈ 6.31 µM); with S. aureus Animal (340), 8 µg/mL (≈ 12.6 µM); in assay [2] it was 4 µg/mL (≈ 6.31 µM); in assay [3] it was 8 µg/mL (≈ 12.6 µM); in the assay with E. coli Human ATCC 28922, 16 µg/mL (≈ 25.2 µM); with E. coli Animal (1956) it was 32 µg/mL (≈ 50.5 µM). For the same compound, the values for the MIC in [4] and in assay [5] were 64 µg/mL (≈ 101 µM) and 32 µg/mL (≈ 50.5 µM), respectively. The IC50 in the assay with CHO-K1 cells is 40 µg/mL (≈ 63.1 µM). Besides, the “MIC - P. aeruginosa (1051575): content” value with P. aeruginosa (1051575) came out at 1 µg/mL.
Take `CNC(=O)CC[C@@H](C)[C@H]1CCC2C3C(CC[C@@]21C)[C@@]1(C)CC[C@H](NCCCNCCCCNCCCN)CC1C[C@H]3O` (stereo partly shown) [Compound (33)]: the minimal inhibitory concentration (MIC) was found to be 3.5 µg/mL (≈ 5.93 µM) in assay [1]; 1 µg/mL (≈ 1.7 µM) in the assay with S. aureus Animal (340); 0.8 µg/mL (≈ 1.36 µM) in assay [2]; 14 µg/mL (≈ 23.7 µM) in assay [3]; 14 µg/mL (≈ 23.7 µM) against E. coli Human ATCC 28922; 7 µg/mL (≈ 11.9 µM) in the assay on E. coli Animal (1956). For the same compound, the MIC came out at 7 µg/mL (≈ 11.9 µM) in [4] and 2 µg/mL (≈ 3.39 µM) in assay [5]. For the same compound, the IC50 in the assay with CHO-K1 cells stood at 35 µg/mL (≈ 59.3 µM). In addition, the “MIC - P. aeruginosa (1051575): content” value with P. aeruginosa (1051575) came out at 1 µg/mL.
On to `CC(C)NC(=O)CC[C@@H](C)[C@H]1CCC2C3CCC4C[C@@H](NCCCNCCCCNCCCN)CC[C@]4(C)C3CC[C@@]21C` (stereo partly drawn) [Compound (36), 3β-spermino-N-isopropyllithocholamide], for which the MIC in assay [1] came out at 3.75 µg/mL (≈ 6.23 µM); in the assay with S. aureus Animal (340), 3.75 µg/mL (≈ 6.23 µM); in assay [2], 1.87 µg/mL (≈ 3.11 µM); in [3], 7.5 µg/mL (≈ 12.5 µM); against E. coli Human ATCC 28922, 7.5 µg/mL (≈ 12.5 µM); against E. coli Animal (1956), 15 µg/mL (≈ 24.9 µM). For the same compound, the values for the minimum inhibitory concentration (MIC) in [4] and in assay [5] were 15 µg/mL (≈ 24.9 µM) and 30 µg/mL (≈ 49.8 µM), respectively. The IC50 with CHO-K1 cells came out at 36 µg/mL (≈ 59.8 µM). The “synergism when administered with doxycycline” value in the assay with P. aeruginosa (1051575) (doxycycline at 2 μg/mL) is listed as “noteworthy synergism”. The “MIC - P. aeruginosa (1051575): content” value with P. aeruginosa (1051575) turned out to be 0.5 µg/mL.
